Test results published in paper PMC6102536, “A Metabolism-Based Synergy for Total Coumarin Extract of Radix Angelicae Dahuricae and Ligustrazine on Migraine Treatment in Rats” (Molecules : A Journal of Synthetic Chemistry and Natural …, 2018).
pIC50: −log10 of the molar value. Read-outs that look alike come from different tables or passages of the source.

Key:
Assay in all cases: P450-Glo inhibition assay, recombinant CYP
Type in all cases: biochemical
CYP1A2 = biological target: T1, CYP1A2 (Homo sapiens, UniProt P05177)
T1 construct: recombinant CYP450, commercial (Research Institute for Liver Diseases, Shanghai); P450-Glo Screening System (Promega)
T1 sequence (P05177 2-516): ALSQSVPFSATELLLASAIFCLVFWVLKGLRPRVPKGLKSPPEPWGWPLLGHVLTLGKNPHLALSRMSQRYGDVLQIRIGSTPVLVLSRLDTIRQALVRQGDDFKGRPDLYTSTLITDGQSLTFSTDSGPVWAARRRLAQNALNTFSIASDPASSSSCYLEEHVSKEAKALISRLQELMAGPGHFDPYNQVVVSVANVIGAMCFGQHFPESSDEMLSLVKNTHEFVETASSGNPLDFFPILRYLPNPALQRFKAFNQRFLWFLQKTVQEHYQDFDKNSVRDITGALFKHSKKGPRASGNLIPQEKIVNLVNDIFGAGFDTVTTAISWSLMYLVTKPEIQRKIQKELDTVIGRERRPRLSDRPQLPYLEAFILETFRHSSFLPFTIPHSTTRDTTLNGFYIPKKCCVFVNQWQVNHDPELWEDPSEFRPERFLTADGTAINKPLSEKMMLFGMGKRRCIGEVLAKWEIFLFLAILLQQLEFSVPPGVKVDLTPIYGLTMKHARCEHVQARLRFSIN

CYP2C19 = biological target: T2, CYP2C19 (Homo sapiens, UniProt P33261)
T2 construct: recombinant CYP450, commercial (Research Institute for Liver Diseases, Shanghai); P450-Glo Screening System (Promega)

CYP2C9 = biological target: T3, CYP2C9 (Homo sapiens, UniProt P11712)
T3 construct: recombinant CYP450, commercial (Research Institute for Liver Diseases, Shanghai); P450-Glo Screening System (Promega)

CYP2D6 = biological target: T4, CYP2D6 (Homo sapiens, UniProt P10635)
T4 construct: recombinant CYP450, commercial (Research Institute for Liver Diseases, Shanghai); P450-Glo Screening System (Promega)

CYP3A4 = biological target: T5, CYP3A4 (Homo sapiens, UniProt P08684); conditions: read-out: IC50 (μM) (95% Confidence Interval) / Isoimperatorin
T5 construct: recombinant CYP450, commercial (Research Institute for Liver Diseases, Shanghai); P450-Glo Screening System (Promega)

[1] = read-out: IC50 (μM) (95% Confidence Interval) / Isoimperatorin

T2 sequence (P33261 whole entry): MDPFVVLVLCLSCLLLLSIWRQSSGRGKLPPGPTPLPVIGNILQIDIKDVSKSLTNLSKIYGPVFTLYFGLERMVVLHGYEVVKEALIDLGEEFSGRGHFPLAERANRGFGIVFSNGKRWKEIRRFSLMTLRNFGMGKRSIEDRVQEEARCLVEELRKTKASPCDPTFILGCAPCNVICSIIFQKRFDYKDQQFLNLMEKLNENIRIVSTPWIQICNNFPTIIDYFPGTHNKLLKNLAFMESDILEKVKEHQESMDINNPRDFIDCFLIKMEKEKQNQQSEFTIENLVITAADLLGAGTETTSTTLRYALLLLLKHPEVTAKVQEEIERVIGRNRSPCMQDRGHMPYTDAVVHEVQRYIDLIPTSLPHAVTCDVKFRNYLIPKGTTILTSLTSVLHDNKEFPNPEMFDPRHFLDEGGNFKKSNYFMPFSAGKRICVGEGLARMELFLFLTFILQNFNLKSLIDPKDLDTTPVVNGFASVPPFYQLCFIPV
T4 sequence (P10635 whole entry): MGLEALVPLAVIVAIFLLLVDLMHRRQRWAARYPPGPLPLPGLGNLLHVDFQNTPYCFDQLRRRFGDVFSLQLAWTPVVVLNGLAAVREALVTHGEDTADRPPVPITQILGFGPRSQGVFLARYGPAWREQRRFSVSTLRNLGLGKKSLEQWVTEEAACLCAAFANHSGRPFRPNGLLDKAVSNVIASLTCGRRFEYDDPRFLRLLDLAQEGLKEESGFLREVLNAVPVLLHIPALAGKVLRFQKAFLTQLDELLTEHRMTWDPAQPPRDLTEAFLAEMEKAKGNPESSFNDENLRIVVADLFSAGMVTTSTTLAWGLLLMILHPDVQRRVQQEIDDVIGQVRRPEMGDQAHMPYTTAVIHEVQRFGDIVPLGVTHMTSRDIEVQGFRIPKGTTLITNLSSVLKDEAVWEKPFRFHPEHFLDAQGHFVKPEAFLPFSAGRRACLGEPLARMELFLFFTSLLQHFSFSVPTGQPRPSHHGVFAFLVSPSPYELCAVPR
T3 sequence (P11712 whole entry): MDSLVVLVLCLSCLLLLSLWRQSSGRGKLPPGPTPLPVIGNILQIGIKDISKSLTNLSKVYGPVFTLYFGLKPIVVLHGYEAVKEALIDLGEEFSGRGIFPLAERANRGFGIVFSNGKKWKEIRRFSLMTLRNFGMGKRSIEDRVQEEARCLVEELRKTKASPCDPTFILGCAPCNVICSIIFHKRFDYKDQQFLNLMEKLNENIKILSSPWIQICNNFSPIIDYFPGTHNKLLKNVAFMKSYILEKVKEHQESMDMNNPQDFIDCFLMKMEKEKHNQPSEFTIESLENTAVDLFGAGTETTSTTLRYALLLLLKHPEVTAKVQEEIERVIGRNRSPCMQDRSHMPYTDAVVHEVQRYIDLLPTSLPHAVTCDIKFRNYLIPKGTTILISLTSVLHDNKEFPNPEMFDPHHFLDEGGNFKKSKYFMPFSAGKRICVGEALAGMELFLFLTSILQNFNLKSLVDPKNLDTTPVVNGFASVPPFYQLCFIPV
T5 sequence (P08684 2-503): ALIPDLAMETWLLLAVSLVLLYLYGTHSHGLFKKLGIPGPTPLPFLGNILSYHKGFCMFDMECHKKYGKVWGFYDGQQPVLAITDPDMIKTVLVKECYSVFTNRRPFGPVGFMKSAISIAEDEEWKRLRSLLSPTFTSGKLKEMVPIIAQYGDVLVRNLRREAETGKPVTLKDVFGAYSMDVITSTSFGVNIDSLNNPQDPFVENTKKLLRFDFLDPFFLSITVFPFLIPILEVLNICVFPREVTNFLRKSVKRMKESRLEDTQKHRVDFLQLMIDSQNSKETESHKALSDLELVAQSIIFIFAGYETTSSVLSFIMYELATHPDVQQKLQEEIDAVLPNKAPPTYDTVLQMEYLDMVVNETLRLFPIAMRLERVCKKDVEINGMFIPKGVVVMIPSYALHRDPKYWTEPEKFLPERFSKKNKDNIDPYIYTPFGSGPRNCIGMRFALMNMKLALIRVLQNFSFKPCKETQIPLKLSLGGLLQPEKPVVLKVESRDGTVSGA

Row | SMILES | pIC50 (CYP1A2) | pIC50 (CYP2C19) | pIC50 (CYP2C9) | pIC50 (CYP2D6) | IC50 (CYP1A2; [1]) | IC50 (CYP2C19; [1]) | IC50 (CYP2C9; [1]) | IC50 (CYP2D6; [1]) | IC50 (CYP3A4)
1 | CC(C)=CCOc1c2occc2cc2ccc(=O)oc12 [imperatorin] | 7.10 | 4.08 | 5.32 | 5.04 | – | – | – | – | –
2 | CC(C)=CCOc1c2ccoc2cc2oc(=O)ccc12 [isoimperatorin] | – | – | – | – | 8.26 µM | 19.6 µM | 5.69 µM | 1.56 µM | 1.47 µM
